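Briefly, cells in 96-well plates were exposed to five compound concentrations for 48 h, and endpoints were estimated by linear interpolation. GI50: concentration for 50% inhibition of growth.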 The source made the active and inactive calls. No stated cut-off is given here; in the data, active = GI50 up to about 1.1 µM and inactive = higher.
Tests used:
Test in all cases: DTP human tumour cell line panel, 48 h
[1] = system: K562
[2] = system: SK-MEL-2
[3] = system: SF-295
[4] = system: OVCAR-8
[5] = system: SF-268
[6] = system: SNB-19
[7] = system: M14
[8] = system: IGROV-1
[9] = system: NCI-H23
[10] = system: RPMI-8226
[11] = system: SK-OV-3
[12] = system: LXFL 529
[13] = system: OVCAR-5
[14] = system: HOP-92
[15] = system: UACC-257
[16] = system: NCI-H522
[17] = system: DU-145
[18] = system: BT-549
[19] = system: Hs-578T
[20] = system: NCI/ADR-RES

SMILES	GI50 [1]	GI50 [2]	GI50 [3]	GI50 [4]	GI50 [5]	GI50 [6]	GI50 [7]	GI50 [8]	GI50 [9]	GI50 [10]	GI50 [11]	GI50 [12]	GI50 [13]	GI50 [14]	GI50 [15]	GI50 [16]	GI50 [17]	GI50 [18]	GI50 [19]	GI50 [20]
CC(=O)C1C(c2ccccc2)C2(C)OC(=O)C(C#N)C12C (centres undefined)	> 100 µM (inactive)	> 100 µM (inactive)	> 100 µM (inactive)	> 100 µM (inactive)	> 100 µM (inactive)	> 100 µM (inactive)	> 100 µM (inactive)	> 100 µM (inactive)	> 100 µM (inactive)	> 100 µM (inactive)	> 100 µM (inactive)	> 100 µM (inactive)	> 100 µM (inactive)							
O=C1NC2(CCCCCC2)C2CCCCCCC12O (centres undefined)	> 100 µM (inactive)	> 100 µM (inactive)	> 100 µM (inactive)	> 100 µM (inactive)	> 100 µM (inactive)	> 100 µM (inactive)	> 100 µM (inactive)	> 100 µM (inactive)	> 100 µM (inactive)		> 100 µM (inactive)	> 100 µM (inactive)	> 100 µM (inactive)	> 100 µM (inactive)	> 100 µM (inactive)	> 100 µM (inactive)				
Cc1cc(N(CCC#N)CCC#N)ccc1/C=C(\NC(=O)/C=C/c1ccccc1)NC(=O)Nc1ccccc1C	> 100 µM (inactive)	38.7 µM (inactive)	25.4 µM (inactive)	30.2 µM (inactive)	24.7 µM (inactive)	32.7 µM (inactive)	> 100 µM (inactive)	68.4 µM (inactive)	58.7 µM (inactive)	> 100 µM (inactive)		47.6 µM (inactive)	> 100 µM (inactive)	23.4 µM (inactive)	> 100 µM (inactive)					
C[C@]12CCC(=O)C(O)=C1CC[C@@H]1C2CC[C@]2(C)Nc3c(cnn3-c3ccccc3)CC12 (some centres undefined)	40.6 µM (inactive)	> 100 µM (inactive)	52.7 µM (inactive)	64.4 µM (inactive)			> 100 µM (inactive)	> 100 µM (inactive)	54.5 µM (inactive)	27.4 µM (inactive)	> 100 µM (inactive)	42.6 µM (inactive)	> 100 µM (inactive)		39 µM (inactive)					
CCCCCCCCC(O)C#CC(N)=O (centres undefined)	13.3 µM (inactive)	13.3 µM (inactive)	39 µM (inactive)	9.42 µM (inactive)		11.8 µM (inactive)	12.3 µM (inactive)		17.6 µM (inactive)	7.48 µM (inactive)		11.2 µM (inactive)	26.7 µM (inactive)	10.5 µM (inactive)	13 µM (inactive)					
CCN(CC)CCN1CCc2c([nH]c3ccccc23)C1c1cccnc1 (centres undefined)	88.9 µM (inactive)		> 100 µM (inactive)	> 100 µM (inactive)	> 100 µM (inactive)	> 100 µM (inactive)	> 100 µM (inactive)	> 100 µM (inactive)	> 100 µM (inactive)	> 100 µM (inactive)	> 100 µM (inactive)	> 100 µM (inactive)	> 100 µM (inactive)	65 µM (inactive)	37.5 µM (inactive)	> 100 µM (inactive)				
Cc1cc2c(=O)c3ccccc3[nH]c2c(C(=O)O)c1C	> 100 µM (inactive)	> 100 µM (inactive)	> 100 µM (inactive)	> 100 µM (inactive)		> 100 µM (inactive)		> 100 µM (inactive)	> 100 µM (inactive)	> 100 µM (inactive)		> 100 µM (inactive)		< 0.01 µM (active)	> 100 µM (inactive)					
COc1ccc(O)cc1C(O)c1ccccc1 (centres undefined)	> 100 µM (inactive)	> 100 µM (inactive)	> 100 µM (inactive)	> 100 µM (inactive)	> 100 µM (inactive)	> 100 µM (inactive)	> 100 µM (inactive)	> 100 µM (inactive)	> 100 µM (inactive)		> 100 µM (inactive)	> 100 µM (inactive)	> 100 µM (inactive)	> 100 µM (inactive)	> 100 µM (inactive)	> 100 µM (inactive)				
CCOC(=O)C(C(=O)OCC)=C1C=C(c2ccccc2)c2ccccc21	36.6 µM (inactive)	> 100 µM (inactive)	31.2 µM (inactive)	> 100 µM (inactive)	> 100 µM (inactive)	> 100 µM (inactive)	35.9 µM (inactive)	> 100 µM (inactive)	54.5 µM (inactive)	16.6 µM (inactive)	> 100 µM (inactive)	53.2 µM (inactive)	38.6 µM (inactive)	8.09 µM (inactive)	73.1 µM (inactive)					
O=C(Cc1ccccc1)NN1C(=O)C(Cl)C1c1ccccc1 (centres undefined)	37.9 µM (inactive)	> 100 µM (inactive)	> 100 µM (inactive)	79.3 µM (inactive)	> 100 µM (inactive)	> 100 µM (inactive)	> 100 µM (inactive)	66.4 µM (inactive)	61.7 µM (inactive)	18.7 µM (inactive)	> 100 µM (inactive)	20 µM (inactive)	> 100 µM (inactive)		> 100 µM (inactive)	2.05 µM (inactive)				
CC(=O)Nc1ccc(S(=O)(=O)N/N=C/CN2C(=O)c3ccccc3C2=O)cc1	> 100 µM (inactive)	> 100 µM (inactive)	> 100 µM (inactive)	> 100 µM (inactive)	> 100 µM (inactive)	> 100 µM (inactive)	> 100 µM (inactive)	> 100 µM (inactive)	> 100 µM (inactive)	> 100 µM (inactive)		> 100 µM (inactive)			> 100 µM (inactive)	> 100 µM (inactive)				
c1ccc2c(c1)CCCc1cc3ccccc3nc1-2	> 100 µM (inactive)	> 100 µM (inactive)	> 100 µM (inactive)	> 100 µM (inactive)	92.5 µM (inactive)	> 100 µM (inactive)	> 100 µM (inactive)	> 100 µM (inactive)	> 100 µM (inactive)	31 µM (inactive)	38.7 µM (inactive)	> 100 µM (inactive)	> 100 µM (inactive)		54.8 µM (inactive)	82.4 µM (inactive)				
O=C(NCCO)c1ccc([N+](=O)[O-])cc1	> 100 µM (inactive)	> 100 µM (inactive)	> 100 µM (inactive)	> 100 µM (inactive)	> 100 µM (inactive)	> 100 µM (inactive)	> 100 µM (inactive)	> 100 µM (inactive)	> 100 µM (inactive)	> 100 µM (inactive)	> 100 µM (inactive)	> 100 µM (inactive)			> 100 µM (inactive)	> 100 µM (inactive)				
O=CC1CCC=CC1NC(=O)OCc1ccccc1 (centres undefined)	4.68 µM (inactive)	38.5 µM (inactive)	30.5 µM (inactive)	22.7 µM (inactive)	85.5 µM (inactive)		33.9 µM (inactive)	> 100 µM (inactive)	> 100 µM (inactive)	40.5 µM (inactive)	> 100 µM (inactive)	44.5 µM (inactive)	> 100 µM (inactive)	99.5 µM (inactive)	> 100 µM (inactive)	> 100 µM (inactive)				
C/C(CC(=O)Nc1ccc([N+](=O)[O-])cc1)=N\Nc1ccc([N+](=O)[O-])cc1[N+](=O)[O-]	20.2 µM (inactive)	> 100 µM (inactive)	47.5 µM (inactive)	> 100 µM (inactive)	62.1 µM (inactive)		> 100 µM (inactive)	71.8 µM (inactive)	> 100 µM (inactive)	56.4 µM (inactive)	> 100 µM (inactive)	20.9 µM (inactive)	> 100 µM (inactive)	73.6 µM (inactive)	47.1 µM (inactive)	25.9 µM (inactive)				
CC12OC3(O)C4C5CC(C6C5C3C61)C42 (centres undefined)	> 100 µM (inactive)	> 100 µM (inactive)		> 100 µM (inactive)	> 100 µM (inactive)	> 100 µM (inactive)	29.4 µM (inactive)			> 100 µM (inactive)	> 100 µM (inactive)	22.9 µM (inactive)			> 100 µM (inactive)	> 100 µM (inactive)				
Cn1c(=O)nc2n(-c3ccc(F)cc3)c3ccccc3nc-2c1=O	19.9 µM (inactive)	19 µM (inactive)	18.7 µM (inactive)	20.5 µM (inactive)	28.2 µM (inactive)	13.9 µM (inactive)	13.9 µM (inactive)	24 µM (inactive)	20 µM (inactive)	25.2 µM (inactive)	> 100 µM (inactive)	22.8 µM (inactive)	24.3 µM (inactive)		14.4 µM (inactive)	16.1 µM (inactive)				
C[C@@H]1CC[C@@]2(OC1)O[C@H]1[C@@H](O)[C@H]3[C@@H]4CC[C@H]5C[C@@H](O[C@@H]6O[C@H](CO)[C@H](O[C@@H]7O[C@H](CO)C(O)[C@H](O[C@@H]8OC[C@@H](O)[C@H](O)[C@H]8O)[C@H]7O[C@@H]7O[C@H](CO)[C@H](O)[C@H](O[C@@H]8O[C@H](CO)[C@@H](O)[C@H](O)[C@H]8O)[C@H]7O)[C@H](O)[C@H]6O)[C@H](O)C[C@]5(C)[C@H]4CC[C@]3(C)[C@H]1[C@@H]2C (some centres undefined) [DIGITONIN]	3.08 µM (inactive)	3.37 µM (inactive)	1.82 µM (inactive)	2.02 µM (inactive)	2.09 µM (inactive)	2.07 µM (inactive)	12.4 µM (inactive)	2.83 µM (inactive)	2.26 µM (inactive)	3.15 µM (inactive)	2.36 µM (inactive)		2.07 µM (inactive)	4.74 µM (inactive)	8.38 µM (inactive)	2.06 µM (inactive)	2.05 µM (inactive)	1.63 µM (inactive)	2.06 µM (inactive)	3.89 µM (inactive)
